This assay concerns the target T1, transmembrane domain of amyloid precursor protein (APPTM) (Homo sapiens, UniProt P05067).
T1 construct: gene APP; APPTM, transmembrane domain of amyloid precursor protein (5,590 Da, 15N labeled, in DPC micelles)
Briefly: 2D 1H-15N TROSY NMR and MALDI-TOF-MS (covalent adducts, up to six additions); the IC50 is from a gel-based assay of APPTM cleavage by PSH. Format: biochemical.

T1 sequence (P05067 686-726 limits assumed): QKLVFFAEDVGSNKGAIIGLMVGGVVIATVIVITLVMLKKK

Regarding `Oc1ccc(O)c2c1C1CCC2C1` [6H8], the IC50 – broadly, the concentration that inhibits the measured activity by half – was 2 to 4 µM.

These data come from publication PMC9490316, “Covalent fragment inhibits intramembrane proteolysis” (Frontiers in Molecular Biosciences, 2022).
